Laboratory results reported in patent US10233179B2, “Thiazoles and uses thereof” (AbbVie Inc., priority 2013, dated 2019).

Key:
[1] = tested on: RSV (Group A, Long Strain); test: Antiviral cytopathic effect (CPE) protection assay, MTT readout; assay type: cell-based; conditions: human respiratory syncytial virus, 96 h; HEp-2 cells, 0.2 MOI RSV, 4 days incubation, protection from CPE by MTT
Description: HEp-2 cells and RSV (Group A, Long Strain) were obtained from the American Type Culture Collection (Manassas, Va.).
A cytopathic effect (CPE) protection assay was performed to determine the ability of a compound to protect the cells from viral infection and thus the CPE induced by viral infection. 96-Well plates were first seeded with 3×10^3 HEp-2 cells per well in Dulbecco's modified Eagle's medium (DMEM) containing 10% fetal bovine serum (FBS). One day after the cells were seeded, they were preincubated with serial dilutions of compounds prepared in 100 μL assay medium (DMEM mixed with F12 medium at a 1:1 ratio, supplemented with 2% FBS and 1 mM sodium pyruvate) for 1 hour at 37° C. 100 μL of assay medium containing 0.2 multiplicity of infection (MOI) of RSV was then added to each well of cells. In addition to wells containing infected cells incubated with compounds, each plate also contained replicates of two kinds of controls: (1) Virus control contained cells infected with 0.2 MOI of RSV in assay medium, (2) Uninfected cell control contained cells incubated with assay medium only. After 4 days of incubation at 37° C., the viability of cells was assessed using MTT (Thiazolyl blue tetrazolium bromide, Sigma). A stock solution of MTT, at a concentration of 4 mg/mL in phosphate-buffered saline, was added to all wells at 25 μL per well. Plates were further incubated for 4 hours, and each well was then treated with 50 μL of a solution containing 20% sodium dodecyl sulfate (SDS) and 0.02 N HCl. After an overnight incubation, the plates were measured on a BioTek® microtiter plate reader at wavelengths of 570 nm and 650 nm. The MTT detection is based on the fact that viable (uninfected) cells can reduce the tetrazolium salts into colored formazan products, which can then be quantitated by spectrometry. Based on the spectrometric absorbance of each sample, the percent of protection from CPE, which is an indicator of protection from viral infection, can be calculated for each compound and the 50% effective concentrations (EC50) can be calculated using a nonlinear regression curve fitting equation provided by the GraphPad Prism® 4 software.
Compounds were tested to determine both their antiviral and toxicity to determine their therapeutic window. Determination of the EC50 and TD50 of these active compounds were repeated one additional time to confirm the window.

HEp-2 cells = test: Cytotoxicity assay (MTT) in parallel with the antiviral assay; assay type: cell-based
Description: HEp-2 cells and RSV (Group A, Long Strain) were obtained from the American Type Culture Collection (Manassas, Va.). Cytotoxicity of the compounds was determined in experiments done in parallel with the antiviral assays. To do this, 100 μL of assay medium was added to the wells of HEp-2 cells pretreated with 100 μL serially diluted compounds as described above. After 4 days of incubation, the viability of the cells was determined by the MTT assay in the same way as detailed in the “Antiviral Assay” method. Results were expressed as 50% toxicity dose (TD50) values. Compounds were tested to determine both their antiviral and toxicity to determine their therapeutic window. Determination of the EC50 and TD50 of these active compounds were repeated one additional time to confirm the window.

[2] = uninfected HEp-2 cells, 4 days incubation, MTT viability

EC50 [1]	Structure (SMILES)	MTT TD50 (HEp-2 cells; [2])	MTT TD50 (HEp-2 cells; human, 4 days)
> 3000 nM	C[C@H](c1ccc(F)cc1)N(Cc1cccn1-c1nccs1)Cc1cccn1-c1nccs1 [Example 62, (1R)-1-(4-fluorophenyl)-N,N-bis{[1-(1,3-thiazol-2-yl)-1H-pyrrol-2-yl]methyl}ethanamine]	3.0 µM	–
260 nM	c1coc(CN(Cc2cccn2-c2nccs2)Cc2cccn2-c2nccs2)c1 [Example 63, 1-(furan-2-yl)-N,N-bis{[1-(1,3-thiazol-2-yl)-1H-pyrrol-2-yl]methyl}methanamine]	20 µM	–
90 nM	c1cncc(C2(CN(Cc3cccn3-c3nccs3)Cc3cccn3-c3nccs3)CC2)c1 [Example 65, 1-[1-(pyridin-3-yl)cyclopropyl]-N,N-bis{[1-(1,3-thiazol-2-yl)-1H-pyrrol-2-yl]methyl}methanamine]	25 µM	–
200 nM	c1cc(CN(CCC2(c3ccncc3)CC2)Cc2cccn2-c2nccs2)n(-c2nccs2)c1 [Example 66, 2-[1-(pyridin-4-yl)cyclopropyl]-N,N-bis{[1-(1,3-thiazol-2-yl)-1H-pyrrol-2-yl]methyl}ethanamine]	14 µM	–
82 nM	N#Cc1cc(CN(Cc2cccn2-c2nccs2)Cc2cccn2-c2nccs2)cs1 [Example 67, 4-[(bis{[1-(1,3-thiazol-2-yl)-1H-pyrrol-2-yl]methyl}amino)methyl]thiophene-2-carbonitrile]	>32 µM	–

More lines, now with the values behind:

Structure (SMILES)	EC50 [1]	MTT TD50 (HEp-2 cells; [2])	MTT TD50 (HEp-2 cells; human, 4 days)
c1cc(CN(Cc2cccn2-c2nccs2)C2CCCCC2)n(-c2nccs2)c1 [Example 52, N,N-bis{[1-(1,3-thiazol-2-yl)-1H-pyrrol-2-yl]methyl}cyclohexanamine]	100 nM	7.2 µM	–
c1ccc(N(Cc2cccn2-c2nccs2)Cc2cccn2-c2nccs2)cc1 [Example 53, N,N-bis{[1-(1,3-thiazol-2-yl)-1H-pyrrol-2-yl]methyl}aniline]	2700 nM	>32 µM	–
FC(F)(F)c1ccc(CN(Cc2cccn2-c2nncs2)Cc2cccn2-c2nncs2)cc1 [Example 54, 1-[1-(1,3,4-thiadiazol-2-yl)-1H-pyrrol-2-yl]-N-{[1-(1,3,4-thiadiazol-2-yl)-1H-pyrrol-2-yl]methyl}-N-[4-(trifluoromethyl)benzyl]methanamine]	> 21000 nM	21 µM	–
Clc1cccc(Cl)c1CN(Cc1cccn1-c1nncs1)Cc1cccn1-c1nncs1 [Example 55, 1-(2,6-dichlorophenyl)-N,N-bis{[1-(1,3,4-thiadiazol-2-yl)-1H-pyrrol-2-yl]methyl}methanamine]	> 32000 nM	>32 µM	–
N#Cc1ccc(CN(Cc2cccn2-c2nncs2)Cc2cccn2-c2nncs2)cc1 [Example 56, 4-[(bis{[1-(1,3,4-thiadiazol-2-yl)-1H-pyrrol-2-yl]methyl}amino)methyl]benzonitrile]	46000 nM	>100 µM	–
FC1(F)CCC(CN(Cc2cccn2-c2nccs2)Cc2cccn2-c2nccs2)CC1 [Example 57, 1-(4,4-difluorocyclohexyl)-N,N-bis{[1-(1,3-thiazol-2-yl)-1H-pyrrol-2-yl]methyl}methanamine]	310 nM	20 µM	–
FC(F)(F)Cn1cc(CN(Cc2cccn2-c2nccs2)Cc2cccn2-c2nccs2)cn1 [Example 58, 1-[1-(1,3-thiazol-2-yl)-1H-pyrrol-2-yl]-N-{[1-(1,3-thiazol-2-yl)-1H-pyrrol-2-yl]methyl}-N-{[1-(2,2,2-trifluoroethyl)-1H-pyrazol-4-yl]methyl}methanamine]	520 nM	49 µM	–
FC(F)n1ccnc1CN(Cc1cccn1-c1nccs1)Cc1cccn1-c1nccs1 [Example 59, 1-[1-(difluoromethyl)-1H-imidazol-2-yl]-N,N-bis{[1-(1,3-thiazol-2-yl)-1H-pyrrol-2-yl]methyl}methanamine]	4100 nM	35 µM	–
c1cncc(C2(CCN(Cc3cccn3-c3nccs3)Cc3cccn3-c3nccs3)CC2)c1 [Example 60, 2-[1-(pyridin-3-yl)cyclopropyl]-N,N-bis{[1-(1,3-thiazol-2-yl)-1H-pyrrol-2-yl]methyl}ethanamine]	850 nM	>100 µM	–
c1cc(CN(Cc2cccn2-c2nncs2)C[C@H]2CCOC2)n(-c2nncs2)c1 [Example 61, 1-[(3R)-tetrahydrofuran-3-yl]-N,N-bis{[1-(1,3,4-thiadiazol-2-yl)-1H-pyrrol-2-yl]methyl}methanamine]	> 100000 nM	>100 µM	–
CC(Cc1cccs1)N(Cc1cccn1-c1nccs1)Cc1cccn1-c1nccs1 (centres unmarked) [Example 64, N,N-bis{[1-(1,3-thiazol-2-yl)-1H-pyrrol-2-yl]methyl}-1-(thiophen-2-yl)propan-2-amine]	330 nM	–	5.6 µM
